Data taken from publication PMC8457056, “Remodeling of the Fibrillation Pathway of α‐Synuclein by Interaction with Antimicrobial Peptide LL‐III” (Chemistry (Weinheim an Der Bergstrasse, Germany), 2021).

Assay: circular dichroism spectroscopy of LL-III
Format: physicochemical
Details: 300 μM LL-III; 20 mM sodium acetate, pH 5.0, 25 °C; minimum around 195 nm
Procedure: Figure 2 A) Binding isotherm obtained by means of steady‐state fluorescence anisotropy measurements. The experiment was performed by titrating a 4 μM solution of carboxyfluorescein‐labeled LL‐III with a solution of α‐Syn in the range 0–100 μM. The red line represents the best fit according to a 1 : 1 binding model.[29] The fluorophore was covalently attached to the N‐terminus of the peptide. B) Circular dichroism (CD) spectra of LL‐III (black solid line), α‐Syn (red solid line,) and of a mixture of LL‐III and α‐Syn (blue solid line) recorded at day 0. Shown are also spectra of the LL‐III/α‐Syn mixture recorded after 5 days (dashed blue line) and after 10 days (dotted blue lines). Here, the concentration of LL‐III was 300 μM, and the concentration of α‐Syn was 30 μM. […]
Next, by means of circular dichroism (CD) spectroscopy, we explored the effect of LLPS formation and LL‐III partitioning on the conformation of the protein. […] In support of this conclusion, we note that the spectrum of the mixture is superimposable with the sum of the spectra of LL‐III and α‐Syn, which were recorded separately (Figure S6). The time evolution of the CD spectrum of the LL‐III/α‐Syn mixture was also recorded after 5 and 10 days (Figure 2B). […]
µM) and following the anisotropy changes of the Trp residue. […] The anisotropy was evaluated at 354 nm which corresponds to the maximum of emission of the free peptide. […]

For NH2-VNWKKIL GKIIKVVK -CONH2 [LL‐III], the “conformation (CD)” value was “random‐coiled conformation in solution”.
